# Laboratory results as given in patent US20200253211A1, “PHOTODYNAMIC INHIBITION OF MICROBIAL PATHOGENS IN PLANTS” (SUNCOR ENERGY INC, priority 2017, published 2020).
# Tests used:
# Type in all cases: cell-based
# Sclerotinia homoeocarpa [1] = assay: Radial growth of dollar spot fungus after treatment of plugs in PBS (24 well plates), dark vs light; details: for inhibition at 500 µM / inhibition at 1500 µM: Clarireedia homoeocarpa
# Protocol: In this example, control of dollar spot fungus (Sclerotinia homoeocarpa) with chlorins combined with a chelating agent was assessed. Treatments were prepared in Phosphate Buffered Saline (PBS) in 24 well plates (in duplicates for light vs. dark incubation) at desired concentrations. Then, a 5 mm diameter plug of a Sclerotinia homoeocarpa isolate (3 isolates total tested) was inoculated into the PBS and incubated at 21° C. in the dark for 2 hours. After 2 hours, one of the 24 well plates (with isolates in triplicate) is left in the dark and one 24 well plate is placed under illumination for 1 hour (all at 21° C.). Following illumination, fungal plugs are removed from PBS, blotted dry on sterile filter paper and transferred to non-amended Potato Dextrose Agar (PDA). Radial growth of the fungus is monitored daily until the growth of S. homoeocarpa reaches the edge of the Petri-dish. Illumination is provided by LED lights emitting about 1000 μmol/m^2/s photosynthetically active radiation (PAR). In this example, control of dollar spot fungus (Sclerotinia homoeocarpa) with Zinc Protoporphyrin IX (Zn-PPIX) combined with EDTA was assessed. Treatments were prepared in Phosphate Buffered Saline (PBS) in 24 well plates (in duplicates for light vs. dark incubation) at desired concentrations. Then, a 5 mm diameter plug of a Sclerotinia homoeocarpa isolate (3 isolates total tested) was inoculated into the PBS and incubated at 21° C. in the dark for 2 hours. After 2 hours, one of the 24 well plates (with isolates in triplicate) is left in the dark and one 24 well plate is placed under illumination for 1 hour (all at 21° C.). Following illumination, fungal plugs are removed from PBS, blotted dry on sterile filter paper and transferred to non-amended Potato Dextrose Agar (PDA). Radial growth of the fungus is monitored daily until the growth of S. homoeocarpa reaches the edge of the Petri-dish. Illumination is provided by LED lights emitting about 1000 μmol/m^2/s photosynthetically active radiation (PAR). In this example, control of dollar spot fungus (Sclerotinia homoeocarpa) with bacteriochlorin combined with EDTA was assessed. Treatments were prepared in Phosphate Buffered Saline (PBS) in 24 well plates (in duplicates for light vs. dark incubation) at desired concentrations. Then, a 5 mm diameter plug of a Sclerotinia homoeocarpa isolate (3 isolates total tested) was inoculated into the PBS and incubated at 21° C. in the dark for 2 hours. After 2 hours, one of the 24 well plates (with isolates in triplicate) is left in the dark and one 24 well plate is placed under illumination for 1 hour (all at 21° C.). Following illumination, fungal plugs are removed from PBS, blotted dry on sterile filter paper and transferred to non-amended Potato Dextrose Agar (PDA). Radial growth of the fungus is monitored daily until the growth of S. homoeocarpa reaches the edge of the Petri-dish. Illumination is provided by LED lights emitting about 1000 μmol/m^2/s photosynthetically active radiation (PAR). In this example, control of dollar spot fungus (Sclerotinia homoeocarpa) with Aluminum chlorin e6 combined with EDTA was assessed. Treatments were prepared in Phosphate Buffered Saline (PBS) in 24 well plates (in duplicates for light vs. dark incubation) at desired concentrations. Then, a 5 mm diameter plug of a Sclerotinia homoeocarpa isolate (3 isolates total tested) was inoculated into the PBS and incubated at 21° C. in the dark for 2 hours. After 2 hours, one of the 24 well plates (with isolates in triplicate) is left in the dark and one 24 well plate is placed under illumination for 1 hour (all at 21° C.). Following illumination, fungal plugs are removed from PBS, blotted dry on sterile filter paper and transferred to non-amended Potato Dextrose Agar (PDA). Radial growth of the fungus is monitored daily until the growth of S. homoeocarpa reaches the edge of the Petri-dish. Illumination is provided by LED lights emitting about 1000 μmol/m^2/s photosynthetically active radiation (PAR). […]
# Sclerotinia homoeocarpa [2] = assay: Radial growth of dollar spot fungus on amended Potato Dextrose Agar, dark vs light; details: for inhibition at 500 µM / inhibition at 1000 µM / inhibition at 2000 µM: Clarireedia homoeocarpa
# E. Coli K-12 = assay: E. Coli assay under LED lamps, colony count; details: Table 11; light; 5 mM Baypure CX
# Protocol: Regarding the E. Coli assay tests in the above examples, the following procedure was used: • 1. E. Coli K-12 inoculated in 5 mL TSB and placed in a shaking incubator overnight. • 2. Dilute culture in 500 mL PBS (˜10̂8 CFU/mL) and placed in shaking incubator for 30 minutes at […]. • 3.15 mL samples created using 12 mL culture and a mixture of PBS buffer and sample compounds. • 4. Placed under LED lamps for 2 hours (40 W/m^2). • 5. Samples diluted to 10^−4 and culture controls diluted to 10^−5 for plating through series dilutions. • 6. 0.1 mL plated of each sample in triplicates on TSA base (10^−3 and 10^−4 for samples. 10^−4 and 10^−5 for controls). • 7. Incubated overnight at 37° C. • 8. Colonies counted next morning and recorded.
# [3] = Table 16B, light, Chlorin Rate 5 μM
# [4] = Table 16B, light, Chlorin Rate 10 μM
# [5] = Table 16B, light, Chlorin Rate 31 μM
compound,measurement,setting,value
O=C(OC[C@H]1O[C@@H](OC(=O)c2cc(O)c(O)c(OC(=O)c3cc(O)c(O)c(O)c3)c2)[C@H](OC(=O)c2cc(O)c(O)c(OC(=O)c3cc(O)c(O)c(O)c3)c2)[C@@H](OC(=O)c2cc(O)c(O)c(OC(=O)c3cc(O)c(O)c(O)c3)c2)[C@@H]1OC(=O)c1cc(O)c(O)c(OC(=O)c2cc(O)c(O)c(O)c2)c1)c1cc(O)c(O)c(OC(=O)c2cc(O)c(O)c(O)c2)c1 [Tannic acid],inhibition at 500 µM,"Sclerotinia homoeocarpa [1]; Table 25A, dark, rate 500 μM",-6.25%
same,inhibition at 1500 µM,"Sclerotinia homoeocarpa [1]; Table 25A, dark, rate 1500 μM",7.29%
same,inhibition at 500 µM,"Sclerotinia homoeocarpa [1]; Table 25B, light, rate 500 μM",-9.69%
same,inhibition at 1500 µM,"Sclerotinia homoeocarpa [1]; Table 25B, light, rate 1500 μM",16.3%
same,Mean Radial Growth,"Sclerotinia homoeocarpa [1]; Table 25A, dark, rate 500 μM",11.33 mm
same,Mean Radial Growth,"Sclerotinia homoeocarpa [1]; Table 25A, dark, rate 1500 μM",9.89 mm
same,Mean Radial Growth,"Sclerotinia homoeocarpa [1]; Table 25B, light, rate 500 μM",11.94 mm
same,Mean Radial Growth,"Sclerotinia homoeocarpa [1]; Table 25B, light, rate 1500 μM",9.11 mm
"O=C(O)CC(NC(CC(=O)O)C(=O)O)C(=O)O (centres unmarked) [Baypure CX (IDS), tetrasodium iminodisuccinate]",inhibition at 500 µM,"Sclerotinia homoeocarpa [2]; Table 14A, dark, rate 500 μM",6.2%
same,inhibition at 1000 µM,"Sclerotinia homoeocarpa [2]; Table 14A, dark, rate 1000 μM",15.2%
same,inhibition at 2000 µM,"Sclerotinia homoeocarpa [2]; Table 14A, dark, rate 2000 μM",31.3%
same,inhibition at 500 µM,"Sclerotinia homoeocarpa [2]; Table 14B, light, rate 500 μM",8.6%
same,inhibition at 1000 µM,"Sclerotinia homoeocarpa [2]; Table 14B, light, rate 1000 μM",18%
same,inhibition at 2000 µM,"Sclerotinia homoeocarpa [2]; Table 14B, light, rate 2000 μM",30.9%
same,Mean Radial Growth,"Sclerotinia homoeocarpa [2]; Table 14A, dark, rate 500 μM",12.7 mm
same,Mean Radial Growth,"Sclerotinia homoeocarpa [2]; Table 14A, dark, rate 1000 μM",11.4 mm
same,Mean Radial Growth,"Sclerotinia homoeocarpa [2]; Table 14A, dark, rate 2000 μM",9.3 mm
same,Mean Radial Growth,"Sclerotinia homoeocarpa [2]; Table 14B, light, rate 500 μM",11.8 mm
same,Mean Radial Growth,"Sclerotinia homoeocarpa [2]; Table 14B, light, rate 1000 μM",10.6 mm
same,Mean Radial Growth,"Sclerotinia homoeocarpa [2]; Table 14B, light, rate 2000 μM",8.9 mm
same,% Inactivation,E. Coli K-12,67.8%
same,CFU/mL,E. Coli K-12,2.09E+06 CFU/mL
same,LogCFU/mL,E. Coli K-12,6.32 LogCFU/mL
"C=Cc1c(C)c2cc3nc(c(CC(=O)O)c4[n-]c(cc5nc(cc1[n-]2)C(C)=C5CC)c(C)c4C(=O)O)C(CCC(=O)O)C3C.[Co+2] (centres unmarked) [CoCe6, reference compound]",% Inhibition,"Sclerotinia homoeocarpa [2]; Table 17A, dark, rate 10 μM",2.05%
same,Mean Radial Growth,"Sclerotinia homoeocarpa [2]; Table 17A, dark, rate 10 μM",13.3 mm
same,% Inhibition,"Sclerotinia homoeocarpa [2]; Table 17A, dark, rate 31 μM",4.92%
same,Mean Radial Growth,"Sclerotinia homoeocarpa [2]; Table 17A, dark, rate 31 μM",12.9 mm
same,% Inhibition,"Sclerotinia homoeocarpa [2]; Table 17B, light, rate 10 μM",3.0%
same,Mean Radial Growth,"Sclerotinia homoeocarpa [2]; Table 17B, light, rate 10 μM",12.4 mm
same,% Inhibition,"Sclerotinia homoeocarpa [2]; Table 17B, light, rate 31 μM",3.9%
same,Mean Radial Growth,"Sclerotinia homoeocarpa [2]; Table 17B, light, rate 31 μM",12.3 mm
C=Cc1c(C)c2cc3nc(c(CC(=O)O)c4[n-]c(cc5nc(cc1[n-]2)C(C)=C5CC)c(C)c4C(=O)O)C(CCC(=O)O)C3C.[Zn+2] (centres unmarked) [ZnCe6],% Inhibition,"Sclerotinia homoeocarpa [2]; Table 16A, dark, rate 5 μM",2.47%
same,Mean Radial Growth,"Sclerotinia homoeocarpa [2]; Table 16A, dark, rate 5 μM",13.2 mm
same,% Inhibition,"Sclerotinia homoeocarpa [2]; Table 16A, dark, rate 10 μM",7.41%
same,Mean Radial Growth,"Sclerotinia homoeocarpa [2]; Table 16A, dark, rate 10 μM",12.5 mm
same,% Inhibition,"Sclerotinia homoeocarpa [2]; Table 16A, dark, rate 31 μM",23.46%
same,Mean Radial Growth,"Sclerotinia homoeocarpa [2]; Table 16A, dark, rate 31 μM",10.3 mm
same,% Inhibition,Sclerotinia homoeocarpa [2]; [3],10.4%
same,Mean Radial Growth,Sclerotinia homoeocarpa [2]; [3],11.5 mm
same,% Inhibition,Sclerotinia homoeocarpa [2]; [4],21.4%
same,Mean Radial Growth,Sclerotinia homoeocarpa [2]; [4],10.1 mm
same,% Inhibition,Sclerotinia homoeocarpa [2]; [5],41.6%
same,Mean Radial Growth,Sclerotinia homoeocarpa [2]; [5],7.5 mm
C[n+]1ccc(-c2c3nc(c(-c4cc[n+](C)cc4)c4ccc([nH]4)c(-c4cc[n+](C)cc4)c4nc(c(-c5cc[n+](C)cc5)c5ccc2[nH]5)C=C4)C=C3)cc1.Cc1ccc(S(=O)(=O)[O-])cc1.Cc1ccc(S(=O)(=O)[O-])cc1.Cc1ccc(S(=O)(=O)[O-])cc1.Cc1ccc(S(=O)(=O)[O-])cc1 [meso-Tetra (N-methyl-4-pyridyl) porphine tetra tosylate],% Inhibition,"Sclerotinia homoeocarpa [1]; Table 31A, dark, rate 0.1 μM",4.17%
same,Mean Radial Growth,"Sclerotinia homoeocarpa [1]; Table 31A, dark, rate 0.1 μM",14.06 mm
same,% Inhibition,"Sclerotinia homoeocarpa [1]; Table 31B, light, rate 0.1 μM",34.63%
same,Mean Radial Growth,"Sclerotinia homoeocarpa [1]; Table 31B, light, rate 0.1 μM",8.39 mm
